Assay results taken from publication PMC9967645, “OAT3 Participates in Drug–Drug Interaction between Bentysrepinine and Entecavir through Interactions with M8—A Metabolite of Bentysrepinine—In Rats and Humans In Vitro” (Molecules, 2023).

Legend:
hOAT1 = target: T1, hOAT1 (Homo sapiens, UniProt Q4U2R8); experiment: In vitro uptake assay in hOAT1-HEK293 cells; type: in vitro ADME; settings: Y101 2.0 µM, M8 10 µM; for inhibition of the uptake of ETV in hOAT1-HEK293 cells: ETV 10 µM; for substrate of hOAT1 (uptake in hOAT1-HEK293 vs mock-HEK293 cells): PAH 10 µM
T1 construct: expressed in transfected cells; host or cells: HEK293
T1 sequence (Q4U2R8 1-563): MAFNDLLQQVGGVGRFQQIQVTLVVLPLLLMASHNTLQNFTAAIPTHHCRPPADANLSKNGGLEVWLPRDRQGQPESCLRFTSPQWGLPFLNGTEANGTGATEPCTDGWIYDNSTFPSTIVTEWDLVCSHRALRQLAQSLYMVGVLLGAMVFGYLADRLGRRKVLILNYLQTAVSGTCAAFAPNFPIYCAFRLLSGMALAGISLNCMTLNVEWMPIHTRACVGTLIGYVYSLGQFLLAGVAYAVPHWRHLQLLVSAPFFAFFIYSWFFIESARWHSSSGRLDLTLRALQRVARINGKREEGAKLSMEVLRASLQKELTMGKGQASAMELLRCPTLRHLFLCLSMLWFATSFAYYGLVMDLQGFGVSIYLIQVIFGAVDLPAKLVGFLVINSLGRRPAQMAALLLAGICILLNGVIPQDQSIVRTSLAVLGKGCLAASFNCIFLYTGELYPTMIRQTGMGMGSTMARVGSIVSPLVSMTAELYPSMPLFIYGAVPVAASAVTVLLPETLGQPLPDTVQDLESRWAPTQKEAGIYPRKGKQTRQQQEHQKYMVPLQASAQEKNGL
Protocol: The hOAT1-HEK293, hOAT3-HEK293 and mock cells were cultured in Dulbecco modified Eagle medium (DMEM) containing 10% fetal bovine serum (FBS) and 1% penicillin/streptomycin in an atmosphere of 5% CO2 air at 37 °C. The HEK293 cells were plated on 24-well plates at a density of 5 × 10^5 cells/well. […] Uptake assay was initiated by adding 1 mL of the transporter buffer containing Y101, M8, ETV or probe substrate. Following incubation with gentle shaking, the uptake was terminated at designated time by removing the transporter buffer and washing cells three times with 1 mL of ice-cold HBSS. Next, substrates of Y101, M8, ETV, PAH and ES in cell monolayer were released by lysing the cells with 0.3 mL of 0.1% Triton X-100 for 2 h and determined by liquid chromatography–tandem mass spectrometry (LC–MS/MS). In the time-course uptake assay, Y101 (2.0 µM) and M8 (10 µM) in the presence or absence of PRO (100 µM) were measured in hOAT1-HEK293, hOAT3-HEK293 and mock cells. The concentration-dependent uptake of M8 was determined in hOAT3-HEK293 cells, and incubation time (5 min) was optimized. The uptake of M8 (10 µM) with or without ETV was examined in hOAT3-HEK293 cells. The uptake of ETV (10 µM) with or without Y101 or M8 was also measured in hOAT1-HEK293 and hOAT3-HEK293 cells, respectively. Furthermore, PAH and ES at concentrations of 10 µM were used as positive control in hOAT1-HEK293 and hOAT3-HEK293 cells, respectively. Protein concentrations were measured by the bicinchoninic acid procedure (Solarbio, Beijing, China) using bovine serum albumin as the standard.
Biological samples were prepared as previously described. Aliquots (50 µL) of urine, plasma, kidney homogenates, or cell lysates were individually mixed with 150 µL methanol and 50 µL working solution of internal standard (acetaminophen or bestatin), followed by vortexing for 1 min and centrifuging at 13,800 g for 10 min. […] The resulting supernatant (1 µL) was subjected to LC-MS/MS for the assessment of Y101, M8, M9 and ETV, respectively. […] The concentrations of ETV, Y101, M8 and M9 were determined by an AB QTRAP 5500 LC–MS/MS System (Foster City, CA, USA) as previously described. […] Analyst1.5.2 software was used for data processing and analysis.

[1] = design: method as in PMID 32277364, PMID 29258048; settings: healthy Chinese volunteers, phase I; cited from earlier work
HBV = system: HBV; design: method as in PMID 32277364, PMID 21872478, PMID 19307124, doi:10.1016/S1674-6384(15)60018-1; settings: dose-dependent; cited from earlier work
[2] = concanavalin A and alpha-naphthylisothiocyanate-induced; cited from earlier work
[3] = system: lamivudine and entecavir-resistant HBV; design: method as in PMID 32277364, PMID 21872478, PMID 19307124, doi:10.1016/S1674-6384(15)60018-1; settings: A64 cells; cited from earlier work
hOAT3 = target: T2, hOAT3 (Homo sapiens, UniProt Q8TCC7); design: expressed in transfected cells; host or cells: HEK293; method as in PMID 23313623; settings: read-out: Km (affinity with hOAT3); cited from earlier work
T2 sequence (Q8TCC7 1-542): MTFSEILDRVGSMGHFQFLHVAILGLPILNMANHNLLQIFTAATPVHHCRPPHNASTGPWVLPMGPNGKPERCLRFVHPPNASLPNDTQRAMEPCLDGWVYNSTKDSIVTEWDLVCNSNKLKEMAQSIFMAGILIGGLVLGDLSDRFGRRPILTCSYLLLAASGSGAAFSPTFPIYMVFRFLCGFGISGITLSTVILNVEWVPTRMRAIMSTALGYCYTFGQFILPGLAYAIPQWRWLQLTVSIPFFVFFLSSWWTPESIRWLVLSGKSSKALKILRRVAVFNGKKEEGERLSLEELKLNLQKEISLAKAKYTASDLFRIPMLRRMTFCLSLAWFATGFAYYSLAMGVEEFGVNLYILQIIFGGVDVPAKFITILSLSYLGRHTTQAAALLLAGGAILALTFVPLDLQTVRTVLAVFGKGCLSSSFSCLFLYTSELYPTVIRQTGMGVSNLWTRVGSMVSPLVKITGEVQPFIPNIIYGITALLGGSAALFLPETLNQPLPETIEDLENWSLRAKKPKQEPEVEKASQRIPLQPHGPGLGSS

[4] = human, in vivo; cited from earlier work

SMILES | inhibition of the uptake of ETV in hOAT1-HEK293 cells (hOAT1) | substrate of hOAT1 (uptake in hOAT1-HEK293 vs mock-HEK293 cells) (hOAT1) | safety and tolerability [1] | inhibitory effects on HBsAg and HBV-DNA replication (HBV) | protective effects on induced liver injury [2] | activity against lamivudine and entecavir-resistant HBV replication [3] | Km (hOAT3) [µM] | plasma concentrations [4]
CN(C)CCOc1ccc(CC(NC(=O)c2ccccc2)C(=O)O)cc1 (stereo not shown) [M8] | not inhibited | not a substrate of hOAT1 | – | – | – | – | – | –
CN(C)CCOc1ccc(C[C@H](NC(=O)c2ccccc2)C(=O)N[C@H](CO)Cc2ccccc2)cc1.Cl [Y101, N-[N-benzoyl-O-(2-dimethylaminoethyl)-l-tyrosyl]-l-phenylalaninol hydrochloride] | not inhibited | not a substrate of hOAT1 or hOAT3 | acceptable safety and tolerability | potent inhibitory effects | protective effects | significant activity | – | –
C=C1[C@H](CO)[C@@H](O)C[C@@H]1n1cnc2c(=O)[nH]c(N)nc21 [ETV, entecavir] | – | – | – | – | – | – | 23 | lower than 50 nM
